Consider five compounds from patent US8329721B2, “Hydroxy and alkoxy substituted 1H-imidazonaphthyridines and methods” (3M Innovative Properties Company, priority 2006, dated 2012).

Molecules are shown by their SMILES.

`Nc1nc2cccnc2c2c1nc(O)n2Cc1ccccc1` [Example 2, 4-Amino-1-benzyl-1H-imidazo[4,5-c][1,5]naphthyridin-2-ol]: the melting point is more than 250 °C. In turn, `CCOc1nc2c(N)nc3cccnc3c2n1CC1CCOCC1` [Example 3, 2-Ethoxy-1-(tetrahydro-2H-pyran-4-ylmethyl)-1H-imidazo[4,5-c][1,5]naphthyridin-4-amine] displayed a melting point of 197 to 200 °C. Compound `Nc1nc2cccnc2c2c1nc(O)n2CC1CCOCC1` [Example 4, 4-Amino-1-(tetrahydro-2H-pyran-4-ylmethyl)-1H-imidazo[4,5-c][1,5]naphthyridin-2-ol] displayed a melting point of 250 to 260 °C. For `CCOc1nc2c(N)nc3cccnc3c2n1[C@@H](C)c1ccccc1` [Example 5, 2-Ethoxy-1-[(1S)-1-phenylethyl]-1H-imidazo[4,5-c][1,5]naphthyridin-4-amine], the melting point is 187 to 190 °C.

On to `C[C@@H](c1ccccc1)n1c(O)nc2c(N)nc3cccnc3c21` [Example 6, 4-amino-1-[(1S)-1-phenylethyl]-1H-imidazo[4,5-c][1,5]naphthyridin-2-ol], for which the melting point lay in the range of 241 to 243 °C.
